Measured values: ChEMBL document CHEMBL4411306, “High-throughput screening of novel pyruvate dehydrogenase kinases inhibitors and biological evaluation of their in vitro and in vivo antiproliferative activity” (Eur J Med Chem, 2019)
Activity calls are given as the source filed them. The rule behind the calls is not given here.

Experiments:
[1] = Permeability across human Caco2 cells by liquid scintillation counting method; assay type: ADME, cell-based; conditions: caco-2
[2] = tested on: NCI-H1975; experiment: Inhibition of PDK in human NCI-H1975 cells assessed as reduction in PDH phosphorylation at 10 uM after 12 hrs by Western blot analysis; assay type: cell-based
[3] = Inhibition of porcine PDK assessed as activation of pyruvate dehydrogenase complex measured after 3 mins; design: species or system Sus scrofa
[4] = target: T1, [Pyruvate dehydrogenase (acetyl-transferring)] kinase isozyme 2, mitochondrial (Homo sapiens, UniProt Q15119); experiment: Inhibition of E2-activated human PDHK2
[5] = target: Heat shock protein HSP90 (Homo sapiens, UniProt P07900+P08238); experiment: Inhibition of human HSP90 measured after 30 mins by fluorescence polarization assay; assay type: protein assay
[6] = tested on: HepG2; experiment: Antiproliferative activity against human HepG2 cells assessed as reduction in cell viability after 72 hrs by MTT assay; assay type: functional
[7] = target: T2, [Pyruvate dehydrogenase (acetyl-transferring)] kinase isozyme 1, mitochondrial (Homo sapiens, UniProt Q15118); experiment: Binding affinity to recombinant human His-tagged PDK1 expressed in Escherichia coli by isothermal calorimetry
T2 sequence (Q15118 whole entry): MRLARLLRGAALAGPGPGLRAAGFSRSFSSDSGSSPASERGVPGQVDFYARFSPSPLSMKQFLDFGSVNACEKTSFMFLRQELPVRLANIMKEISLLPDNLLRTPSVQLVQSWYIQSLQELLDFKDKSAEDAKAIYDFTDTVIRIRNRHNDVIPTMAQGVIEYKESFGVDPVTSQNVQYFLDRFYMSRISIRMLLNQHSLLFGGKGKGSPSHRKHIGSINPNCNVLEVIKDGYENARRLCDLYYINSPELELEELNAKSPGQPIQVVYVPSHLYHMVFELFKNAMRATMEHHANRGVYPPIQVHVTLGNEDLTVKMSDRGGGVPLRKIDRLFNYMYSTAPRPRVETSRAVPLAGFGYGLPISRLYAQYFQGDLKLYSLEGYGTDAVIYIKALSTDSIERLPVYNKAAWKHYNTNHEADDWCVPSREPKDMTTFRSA

[8] = tested on: A549; experiment: Antiproliferative activity against human A549 cells assessed as reduction in cell viability after 72 hrs by MTT assay; assay type: functional
[9] = tested on: NCI-H1975; experiment: Antiproliferative activity against human NCI-H1975 cells assessed as reduction in cell viability after 72 hrs by MTT assay; assay type: functional
[10] = target: [Pyruvate dehydrogenase (acetyl-transferring)] kinase isozyme 4, mitochondrial (Homo sapiens, UniProt Q16654); experiment: Inhibition of recombinant human His-tagged PDK4 expressed in Escherichia coli using PDH E1 as substrate measured after 30 mins by Kinase-Glo luminescence assay
Chain of [Pyruvate dehydrogenase (acetyl-transferring)] kinase isozyme 4, mitochondrial (Q16654 whole entry): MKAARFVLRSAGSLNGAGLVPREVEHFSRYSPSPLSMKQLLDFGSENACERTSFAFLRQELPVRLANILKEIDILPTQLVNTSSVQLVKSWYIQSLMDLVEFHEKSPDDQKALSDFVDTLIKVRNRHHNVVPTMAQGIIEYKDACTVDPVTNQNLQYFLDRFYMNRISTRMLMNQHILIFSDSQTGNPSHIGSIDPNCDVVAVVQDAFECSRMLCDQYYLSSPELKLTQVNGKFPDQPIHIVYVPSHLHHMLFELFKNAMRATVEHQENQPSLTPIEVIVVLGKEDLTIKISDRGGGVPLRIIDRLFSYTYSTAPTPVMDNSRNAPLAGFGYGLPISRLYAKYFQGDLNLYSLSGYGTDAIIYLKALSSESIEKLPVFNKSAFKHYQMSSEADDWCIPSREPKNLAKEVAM

[11] = Antiproliferative activity against human BEAS2B cells assessed as reduction in cell viability after 72 hrs by MTT assay; assay type: cell-based; conditions: BEAS-2B cells, read-out: GC50
[12] = tested on: HCT-116; experiment: Antiproliferative activity against human HCT116 cells assessed as reduction in cell viability after 72 hrs by MTT assay; assay type: functional
[13] = tested on: MCF7; experiment: Antiproliferative activity against human MCF7 cells assessed as reduction in cell viability after 72 hrs by MTT assay; assay type: functional
[14] = target: [Pyruvate dehydrogenase (acetyl-transferring)] kinase isozyme 3, mitochondrial (Homo sapiens, UniProt Q15120); experiment: Inhibition of recombinant human His-tagged PDK3 expressed in Escherichia coli using PDH E1 as substrate measured after 30 mins by Kinase-Glo luminescence assay
Chain of [Pyruvate dehydrogenase (acetyl-transferring)] kinase isozyme 3, mitochondrial (Q15120 whole entry): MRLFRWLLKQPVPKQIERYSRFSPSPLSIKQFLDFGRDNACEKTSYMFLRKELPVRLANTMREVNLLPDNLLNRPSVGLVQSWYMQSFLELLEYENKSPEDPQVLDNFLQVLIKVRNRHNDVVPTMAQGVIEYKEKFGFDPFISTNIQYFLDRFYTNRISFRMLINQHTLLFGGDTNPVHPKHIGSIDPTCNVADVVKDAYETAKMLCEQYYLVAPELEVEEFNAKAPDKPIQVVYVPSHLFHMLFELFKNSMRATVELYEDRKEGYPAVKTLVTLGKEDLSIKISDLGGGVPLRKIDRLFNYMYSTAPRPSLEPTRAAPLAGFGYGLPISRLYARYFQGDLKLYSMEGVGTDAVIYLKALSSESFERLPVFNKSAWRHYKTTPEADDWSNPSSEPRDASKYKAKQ

[15] = tested on: A-375; experiment: Antiproliferative activity against human A375 cells assessed as reduction in cell viability after 72 hrs by MTT assay; assay type: functional
[16] = target: T2, [Pyruvate dehydrogenase (acetyl-transferring)] kinase isozyme 1, mitochondrial; experiment: Inhibition of recombinant human His-tagged PDK1 expressed in Escherichia coli using PDH E1 as substrate measured after 30 mins by Kinase-Glo luminescence assay
[17] = target: T1, [Pyruvate dehydrogenase (acetyl-transferring)] kinase isozyme 2, mitochondrial; experiment: Inhibition of recombinant human His-tagged PDK2 expressed in Escherichia coli using PDH E1 as substrate measured after 30 mins by Kinase-Glo luminescence assay
[18] = tested on: NCI-H1650; experiment: Antiproliferative activity against human NCI-H1650 cells assessed as reduction in cell viability after 72 hrs by MTT assay; assay type: functional
[19] = target: T2, [Pyruvate dehydrogenase (acetyl-transferring)] kinase isozyme 1, mitochondrial; conditions: NCI-H1975, 10 mM
Description: Inhibition of PDK1 in human NCI-H1975 cells assessed as switch of pyruvate metabolism from lactate production to oxidative phosphorylation by measuring by measuring reduction in lactate formation at 10 mM measured after 4 hrs

[20] = target: T2, [Pyruvate dehydrogenase (acetyl-transferring)] kinase isozyme 1, mitochondrial; conditions: NCI-H1975, 10 mM; remark: listed apart in the source
Description: Inhibition of PDK1 in human NCI-H1975 cells assessed as switch of pyruvate metabolism from lactate production to oxidative phosphorylation by measuring decrease in extracellular acidification rate at 10 mM measured after 4 hrs by XFe24 extracellular flux analyzer based assay

[21] = tested on: NCI-H1975; experiment: Inhibition of PDK in human NCI-H1975 cells assessed as reduction in PDH phosphorylation at Ser293 residue at 10 mM by ELISA; assay type: cell-based
[22] = species on record: Sus scrofa; experiment: Inhibition of porcine PDK assessed as activation of pyruvate dehydrogenase complex at 10 mM measured after 3 mins relative to control
[23] = target: T2, [Pyruvate dehydrogenase (acetyl-transferring)] kinase isozyme 1, mitochondrial; conditions: NCI-H1975, 10 mM; remark: listed apart in the source
Description: Inhibition of PDK1 in human NCI-H1975 cells assessed as switch of pyruvate metabolism from lactate production to oxidative phosphorylation by measuring increase in oxygen consumption rates at 10 mM measured after 4 hrs by XFe24 extracellular flux analyzer based assay

[24] = tested on: NCI-H1975; experiment: Inhibition of PDK in human NCI-H1975 cells assessed as reduction in PDH phosphorylation at 10 mM after 12 hrs by Western blot analysis; assay type: cell-based

`COc1cccc2c1C(=O)c1c(O)c3c(c(O)c1C2=O)C[C@@](O)(C(=O)CO)C[C@@H]3O[C@H]1C[C@H](N)[C@H](O)[C@H](C)O1` [DOXORUBICIN] showed a Papp [1] of 0.21 ×10⁻⁶ cm/s.

With `Cc1ccc(NC(=O)CSc2c[nH]c(-c3ccccc3O)n2)cc1` the “reduction in PDH phosphorylation (qualitative)” value (shortened to “reduction in PDH phosphorylation”) [2] was “Active” and the EC50 [3] was 4.6 µM.

Molecule `C[C@@H]1CN(C(=O)[C@](C)(O)C(F)(F)F)[C@@H](C)CN1C(=O)c1ccc(C#N)cc1` has an IC50 [4] of 0.0078 µM.

Work on `CC(C)Cc1ccc(C(C)C(=O)O)cc1` (centres undefined) [IBUPROFEN] yielded a Papp [1] of 47.2 ×10⁻⁶ cm/s.

In the case of `C[C@H]1CCc2c(sc3nc(SCCN4CCCC4)n(N)c(=O)c23)C1`, the Papp [1] is reported as 0.96 ×10⁻⁶ cm/s, the IC50 [5] is reported as 2.7 µM and the Activity [6] is reported as “Dose-dependent effect”. For the same molecule, the GC50 [6] was over 20 µM, the “reduction in PDH phosphorylation” value [2] was “Active” and the Kd [7] was 3.5 µM. The Activity [8] was “Dose-dependent effect”, the GC50 [8] was over 20 µM and the Activity [9] was “Dose-dependent effect”. The GC50 [9] was 15.6 µM, the IC50 [10] was 14.7 µM and the GI50 at 72 h [11] was over 20 µM. For the same molecule, the EC50 [3] was 1.6 µM, the Activity [12] was “Dose-dependent effect” and the GC50 [12] was over 20 µM. The Activity [13] was “Dose-dependent effect”, the GC50 [13] was over 20 µM and the IC50 [14] was 8.3 µM. The Activity [15] was “Dose-dependent effect”, the GC50 [15] was over 20 µM and the IC50 [16] was 5.9 µM. The IC50 [17] was 10.5 µM, the Activity [18] was “Dose-dependent effect” and the GC50 [18] was 16.3 µM.

In the case of `CC(=O)N[C@@H](Cc1c[nH]c2ccccc12)C(=O)NCCOc1ccc(C2CCCCC2)cc1`, the “reduction in PDH phosphorylation” value [2] is reported as “Active” and the EC50 [3] is reported as 3.5 µM.

With `CCOc1ccc([C@@H]2C(C(=O)Nc3cccnc3)=C(C)Nc3nc(CCCO)nn32)cc1` the “reduction in PDH phosphorylation” value [2] was “Active” and the EC50 [3] was 5.9 µM.

With `CC(C)CNS(=O)(=O)c1ccc(OCC(=O)N(Cc2ccccc2)Cc2ccccc2)cc1` the Papp [1] was 1.14 ×10⁻⁶ cm/s, the IC50 [5] was 3.58 µM and the Activity [6] was “Dose-dependent effect”. For the same molecule, the GC50 [6] was 18.2 µM, the “reduction in PDH phosphorylation” value [2] was “Active” and the Kd [7] was 1.49 µM. The Activity [8] was “Dose-dependent effect”, the GC50 [8] was 17.5 µM and the Activity [9] was “Dose-dependent effect”. For the same molecule, the GC50 [9] was over 20 µM, the IC50 [10] was 6.9 µM and the GI50 at 72 h [11] was over 20 µM. The EC50 [3] was 1.4 µM, the Activity [12] was “Dose-dependent effect” and the GC50 [12] was over 20 µM. The Activity [13] was “Dose-dependent effect”, the GC50 [13] was over 20 µM and the IC50 [14] was 4.9 µM. For the same molecule, the Activity [15] was “Dose-dependent effect”, the GC50 [15] was 12.3 µM and the IC50 [16] was 0.89 µM. The IC50 [17] was 5.9 µM, the Activity [18] was “Dose-dependent effect” and the GC50 [18] was over 20 µM.

With `O=C(c1ccccc1)C(Cl)Cl` the “reduction in PDH phosphorylation” value [2] was “Active” and the EC50 [3] was over 1000 µM.

With `COc1ccc(C(=O)CSc2nnc(CNc3ccccc3OC)n2-c2ccccc2)cc1` the “reduction in PDH phosphorylation” value [2] was “Active” and the EC50 [3] was 5.2 µM.

`CN(C)C(=O)c1ccc(S(=O)(=O)c2ccc(NC(=O)[C@@](C)(O)C(F)(F)F)c(Cl)c2)cc1` gave an IC50 [4] of 0.08 µM.

For `O=C(Nc1ccc(Cl)cc1C(=O)N1CCCC[C@@H]1CCO)c1ccc(Cl)cc1Cl`, the “reduction in PDH phosphorylation” value [2] was “Active” and the EC50 [3] was 8.4 µM.

In the case of `O=C(O)C(Cl)Cl` [DICHLOROACETIC ACID], the inhibition [19] is reported as “Active”, the inhibition [20] is reported as “Active” and the inhibition [21] is reported as “Active”. For the same molecule, the inhibition [22] was 54.8%, the inhibition [23] was “Active” and the EC50 [3] was over 100 µM. For the same molecule, the inhibition [24] was “Active”.

With `COc1ccc(-c2nnn(CC(=O)Nc3cccc(F)c3)n2)cc1` the “reduction in PDH phosphorylation” value [2] was “Active” and the EC50 [3] was 6.9 µM.

`Cc1cnc(Cl)nc1-c1ccc(N(Cc2ccc(CNC(=O)C(F)F)cc2)C(=O)c2ccc(O)cc2O)cc1` showed an EC50 [3] of 0.12 µM.
